# Reference: patent US10981894B2, “Melanocortin subtype-2 receptor (MC2R) antagonists and uses thereof” (Crinetics Pharmaceuticals, Inc., priority 2018, dated 2021)
# Biological target: hMC2 receptor (Homo sapiens, UniProt Q01718)
# Experiment: hMC2 membrane binding assay ([125I]ACTH (1-39) Tyr23, SPA)
# Design: scale not given here
# Conditions: crude hMC2R membranes from CRE-bla-CHO-K1 cells expressing hMC2 receptor and hMRAP; [125I]ACTH (1-39) Tyr23 0.2 nM; 1.5 hours at room temperature; read-out: MC2R binding potency
# Procedure: Crude membrane fractions are prepared from CRE-bla-CHO-K1 cells stably expressing hMC2 receptor and hMRAP accessory protein (Thermo Fisher). The cells are grown to 85-100% confluence on standard tissue culture dishes in GlutaMax DMEM growth media (Gibco) with following additives: 10% dialyzed FBS (Gemini), 0.1 mM NEAA (Gibco), 25 mM HEPES (Gibco), 5 μg/mL blasticidin (Goldbio), 100 μg/mL zeocin (Invitrogen), 600 μg/mL hygromycin (Goldbio). To prepare membranes, cells are scraped and collected in 1× Dulbecco's phosphate buffered saline (Corning) and then pelleted at 1000 RPM's. The cell pellet is reconstituted in membrane preparation buffer (20 mM HEPES, 6 mM MgCl2 and 1 mM EGTA, protease inhibitor tablets (Pierce) adjusted to pH 7.4), homogenized using a dounce homogenizer, and the resulting membrane fraction is pelleted by centrifugation at 12,000 RPM's. The membrane pellet is resuspended in membrane preparation buffer, snap freezed and stored at −80° C. for later use.
# Binding Assay for hMC2 Antagonists Protocol:
# The hMC2 membrane binding assay utilizes the following components: radiolabel [^125I]ACTH (1-39) Tyr23 (PerkinElmer), wheatgerm agglutinin coated PVT SPA beads (PerkinElmer), crude hMC2R membranes, and compounds. Briefly hMC2R membranes are incubated with SPA beads in binding assay buffer (50 mM HEPES, 5 mM MgCl2, 1 mM CaCl2, 0.2% BSA, protease inhibitor tablets (Pierce) adjusted to pH7.4) prior to assay initiation. A dose response of compound (the final concentration of compound are typically 0-10,000 nM), SPA membranes, and [^125I]ACTH (1-39) Tyr23 at a final concentration of 0.2 nM is plated in a 96-well assay plate and allowed to incubate 1.5 hours at room temperature. Assay plates are read using a Top Count NXT and Ki values for compounds are determined using a GraphPad Prism 6 non-linear regression analysis.
# Chain of hMC2 receptor (Q01718 whole entry): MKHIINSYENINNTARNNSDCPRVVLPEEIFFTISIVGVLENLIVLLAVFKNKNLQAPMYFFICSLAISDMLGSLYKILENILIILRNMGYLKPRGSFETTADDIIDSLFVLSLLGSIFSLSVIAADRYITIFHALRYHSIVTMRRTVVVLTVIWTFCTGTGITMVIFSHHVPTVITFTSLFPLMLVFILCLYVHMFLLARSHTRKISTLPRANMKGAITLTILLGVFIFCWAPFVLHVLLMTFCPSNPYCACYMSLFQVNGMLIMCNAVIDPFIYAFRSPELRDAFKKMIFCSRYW
# Chain of hMC2 receptor (Q8TCY5 whole entry partner): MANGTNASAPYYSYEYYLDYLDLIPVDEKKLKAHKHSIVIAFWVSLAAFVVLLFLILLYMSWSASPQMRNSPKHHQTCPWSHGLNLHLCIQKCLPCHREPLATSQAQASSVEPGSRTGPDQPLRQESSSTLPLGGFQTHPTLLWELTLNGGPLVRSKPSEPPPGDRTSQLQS
row,Structure (SMILES),Ki [µM]
1,"CCOc1ncccc1-c1ccc(N2CCN(C(=O)N3CCC[C@H]3c3cccc(F)c3)C[C@H]2CC)c(C(=O)N[C@@H]2CCN(C)C2)n1 [Compound 1-381, 2′-ethoxy-5-[(2R)-2-ethyl-4-[(2S)-2-(3-fluorophenyl)pyrrolidine-1-carbonyl]piperazin-1-yl]-N-[(3R)-1-methylpyrrolidin-3-yl]-[2,3′-bipyridine]-6-carboxamide]",< 0.01
2,"CCOc1ccccc1-c1ccc(N2CCN(C(=O)C3(C(F)(F)F)CCCC3)C[C@H]2CC)c(C(=O)NCC2CN(C)C2)n1 [Compound 1-340, 6-(2-ethoxyphenyl)-3-[(2R)-2-ethyl-4-[1-(trifluoromethyl)cyclopentanecarbonyl]piperazin-1-yl]-N-[(1-methylazetidin-3-yl)methyl]pyridine-2-carboxamide]",< 0.01
3,"CCOc1ncccc1-c1ccc(N2CCN(C(=O)C3(C(F)(F)F)CCC3)C[C@H]2CC)c(C(=O)N[C@@H]2CCNC2)n1 [Compound 1-280, 2′-ethoxy-5-[(2R)-2-ethyl-4-[1-(trifluoromethyl)cyclobutanecarbonyl]piperazin-1-yl]-N-[(3R)-pyrrolidin-3-yl]-[2,3′-bipyridine]-6-carboxamide]",< 0.01
4,"CCOc1ncccc1-c1ccc(N2CCN(C(=O)N3CCC[C@H]3C(F)(F)F)C[C@H]2CC)c(C(=O)N[C@@H]2CCNC2)n1 [Compound 1-306, 2′-ethoxy-5-[(2R)-2-ethyl-4-[(2S)-2-(trifluoromethyl)pyrrolidine-1-carbonyl]piperazin-1-yl]-N-[(3R)-pyrrolidin-3-yl]-[2,3′-bipyridine]-6-carboxamide]",< 0.01
5,"CCOc1ncccc1-c1ccc(N2CCN(C(=O)N3CCCC3(C)C(F)(F)F)C[C@H]2CC)c(C(=O)N[C@@H]2CCNC2)n1 (stereo partly drawn) [Compound 1-326, 2′-ethoxy-5-[(2R)-2-ethyl-4-[2-methyl-2-(trifluoromethyl)pyrrolidine-1-carbonyl]piperazin-1-yl]-N-[(3R)-pyrrolidin-3-yl]-[2,3′-bipyridine]-6-carboxamide]",< 0.01
6,"CCOc1ncccc1-c1ccc(N2CCN(C(=O)C3(C(F)(F)F)CCCC3)C[C@H]2CC)c(C(=O)NC[C@@H]2CCN2C)n1 [Compound 1-331, 2′-ethoxy-5-[(2R)-2-ethyl-4-[1-(trifluoromethyl)cyclopentanecarbonyl]piperazin-1-yl]-N-{[(2S)-1-methylazetidin-2-yl]methyl}-[2,3′-bipyridine]-6-carboxamide]",< 0.01
7,"CCOc1ncccc1-c1ccc(N2CCN(C(=O)N3CCc4cccc(F)c43)C[C@H]2CC)c(C(=O)N[C@@H]2CCNC2)n1 [Compound 1-350, 2′-ethoxy-5-[(2R)-2-ethyl-4-(7-fluoro-2,3-dihydro-1H-indole-1-carbonyl)piperazin-1-yl]-N-[(3R)-pyrrolidin-3-yl]-[2,3′-bipyridine]-6-carboxamide]",< 0.01
8,"CCOc1ccccc1-c1ccc(N2CCN(C(=O)OC3(C(F)(F)F)CCC3)C[C@H]2CC)c(C(=O)N[C@@H]2CCNC2)n1 [Compound 1-338, 1-(trifluoromethyl)cyclobutyl (3R)-4-[6-(2-ethoxyphenyl)-2-{[(3R)-pyrrolidin-3-yl]carbamoyl}pyridin-3-yl]-3-ethylpiperazine-1-carboxylate]",< 0.01
9,"CCOc1ncccc1-c1ccc(N2CCN(C(=O)N3CCCC[C@H]3C(F)(F)F)C[C@H]2CC)c(C(=O)N[C@@H]2CCN(C)C2)n1 [Compound 1-427, 2′-ethoxy-5-[(2R)-2-ethyl-4-[(2S)-2-(trifluoromethyl)piperidine-1-carbonyl]piperazin-1-yl]-N-[(3R)-1-methylpyrrolidin-3-yl]-[2,3′-bipyridine]-6-carboxamide]",< 0.01
10,"CCOc1ncccc1-c1ccc(N2CCN(C(=O)c3ccc(OC)nc3C(F)(F)F)C[C@H]2CC)c(C(=O)N[C@@H]2CCN(C)C2)c1F [Compound 1-270, 3-(2-ethoxypyridin-3-yl)-6-[(2R)-2-ethyl-4-[6-methoxy-2-(trifluoromethyl)pyridine-3-carbonyl]piperazin-1-yl]-2-fluoro-N-[(3R)-1-methylpyrrolidin-3-yl]benzamide]",< 0.01
11,"CCOc1ncccc1-c1ccc(N2CCN(C(=O)N3CCc4cccc(C#N)c43)C[C@H]2CC)c(C(=O)N[C@H]2CCN(C)C2)n1 [Compound 1-404, 5-[(2R)-4-(7-cyano-2,3-dihydro-1H-indole-1-carbonyl)-2-ethylpiperazin-1-yl]-2′-ethoxy-N-[(3S)-1-methylpyrrolidin-3-yl]-[2,3′-bipyridine]-6-carboxamide]",< 0.01
12,"CCOc1ncccc1-c1ccc(N2CCN(C(=O)C3(C(F)(F)F)CC4CCC3C4)C[C@H]2CC)c(C(=O)N[C@@H]2CCNC2)n1 (stereo partly drawn) [Compound 1-297, 2′-ethoxy-5-[(2R)-2-ethyl-4-[2-(trifluoromethyl)bicyclo[2.2.1]heptane-2-carbonyl]piperazin-1-yl]-N-[(3R)-pyrrolidin-3-yl]-[2,3′-bipyridine]-6-carboxamide]",< 0.01
13,"CCOc1ncccc1-c1ccc(N2CCN(C(=O)c3ccc(F)cc3C(F)(F)F)C[C@H]2CC)c(C(=O)N[C@@H]2CCNC2)c1F [Compound 1-111, 3-(2-ethoxypyridin-3-yl)-6-[(2R)-2-ethyl-4-[4-fluoro-2-(trifluoromethyl)benzoyl]piperazin-1-yl]-2-fluoro-N-[(3R)-pyrrolidin-3-yl]benzamide]",< 0.01

# Continued, values first:
row,Ki [µM],Structure (SMILES)
1,< 0.01,"CCOc1ncccc1-c1ccc(N2CCN(C(=O)c3ccc(F)cc3-c3ccc(CN)cc3)C[C@H]2CC)c(C(=O)NCCN)c1 [Compound 1-36, N-(2-aminoethyl)-2-[(2R)-4-[4′-(aminomethyl)-5-fluoro-[1,1′-biphenyl]-2-carbonyl]-2-ethylpiperazin-1-yl]-5-(2-ethoxypyridin-3-yl)benzamide]"
2,< 0.01,"CC[C@@H]1CN(C(=O)c2ccc(Cl)cc2C(F)(F)F)CCN1c1ccc(-c2cccnc2OC)cc1C(=O)NCCN [Compound 1-71, N-(2-aminoethyl)-2-[(2R)-4-[4-chloro-2-(trifluoromethyl)benzoyl]-2-ethylpiperazin-1-yl]-5-(2-methoxypyridin-3-yl)benzamide]"
3,< 0.01,"CCOc1ccccc1-c1ccc(N2CCN(C(=O)c3ccc(Cl)cc3C(F)(F)F)C[C@H]2CC)c(C(=O)NC2CNC2)n1 [Compound 1-220, N-(azetidin-3-yl)-3-[(2R)-4-[4-chloro-2-(trifluoromethyl)benzoyl]-2-ethylpiperazin-1-yl]-6-(2-ethoxyphenyl)pyridine-2-carboxamide]"
4,< 0.01,"CCOc1ccc(C(=O)N2CCN(c3ccc(-c4cccnc4OCC)c(F)c3C(=O)NCCNC)[C@H](CC)C2)c(C(F)(F)F)n1 [Compound 1-165, 6-[(2R)-4-[6-ethoxy-2-(trifluoromethyl)pyridine-3-carbonyl]-2-ethylpiperazin-1-yl]-3-(2-ethoxypyridin-3-yl)-2-fluoro-N-[2-(methylamino)ethyl]benzamide]"
5,< 0.01,"CCOc1ncccc1-c1ccc(N2CCN(C(=O)c3ccc(OC)cc3C(F)(F)F)C[C@H]2CC)c(C(=O)NC2CNC2)c1F [Compound 1-202, N-(azetidin-3-yl)-3-(2-ethoxypyridin-3-yl)-6-[(2R)-2-ethyl-4-[4-methoxy-2-(trifluoromethyl)benzoyl]piperazin-1-yl]-2-fluorobenzamide]"
6,< 0.01,"CCOc1ncccc1-c1ccc(N2CCN(C(=O)c3ccc(Cl)cc3N(C)C)C[C@H]2CC)c(C(=O)N[C@@H]2CCNC2)c1 [Compound 1-91, 2-[(2R)-4-[4-chloro-2-(dimethylamino)benzoyl]-2-ethylpiperazin-1-yl]-5-(2-ethoxypyridin-3-yl)-N-[(3R)-pyrrolidin-3-yl]benzamide]"
7,< 0.01,"CCOc1ncccc1-c1ccc(N2CCN(C(=O)c3ccc(C)cc3N3CC[C@H](NC)C3)C[C@H]2CC)c(C(=O)NCCN)c1 [Compound 1-67, N-(2-aminoethyl)-5-(2-ethoxypyridin-3-yl)-2-[(2R)-2-ethyl-4-{4-methyl-2-[(3S)-3-(methylamino)pyrrolidin-1-yl]benzoyl}piperazin-1-yl]benzamide]"
8,< 0.01,"CCOc1ncccc1-c1ccc(N2CCN(C(=O)c3ccc(F)cc3C(F)F)C[C@H]2CC)c(C(=O)N[C@@H]2CCNC2)c1F [Compound 1-189, 6-[(2R)-4-[2-(difluoromethyl)-4-fluorobenzoyl]-2-ethylpiperazin-1-yl]-3-(2-ethoxypyridin-3-yl)-2-fluoro-N-[(3R)-pyrrolidin-3-yl]benzamide]"
9,< 0.01,"CCOc1ncccc1-c1ccc(N2CCN(C(=O)c3ccc(Cl)cc3OC)C[C@H]2CC)c(C(=O)NCCN)c1 [Compound 1-54, N-(2-aminoethyl)-2-[(2R)-4-(4-chloro-2-methoxybenzoyl)-2-ethylpiperazin-1-yl]-5-(2-ethoxypyridin-3-yl)benzamide]"
10,< 0.01,"CCOc1ncccc1-c1ccc(N2CCN(C(=O)c3ccc(C)cc3C(F)(F)F)C[C@H]2CC)c(C(=O)NCCN)c1 [Compound 1-59, N-(2-aminoethyl)-5-(2-ethoxypyridin-3-yl)-2-[(2R)-2-ethyl-4-[4-methyl-2-(trifluoromethyl)benzoyl]piperazin-1-yl]benzamide]"
